# Data reported in patent US11186554B2, “Non-fused tricyclic compounds” (VIVACE THERAPEUTICS, INC., priority 2017, dated 2021).
# Test system: firefly luciferase activity
# Assay: Dual-Glo firefly/renilla luciferase reporter assay in cells
# Format: cell-based
# Conditions: 24 h, read-out: Firefly Luciferase IC50 (μM)
row,SMILES,IC50 [µM]
1,"OCCn1nnc(-c2cccc(F)c2Nc2ccc(C(F)(F)F)cc2)n1 [Compound 188, 2-(5-(3-fluoro-2-((4-(trifluoromethyl)phenyl)amino)phenyl)-2H-tetrazol-2-yl)ethanol]",< 0.1
2,"OCCn1nnc(-c2cccnc2Nc2ccc(OC(F)(F)F)cc2)n1 [Compound 75, 2-(5-(2-((4-(trifluoromethoxy)phenyl)amino)pyridin-3-yl)-2H-tetrazol-2-yl)ethanol]",0.1 to 1
3,"OCCn1nnc(-c2c(F)cccc2Nc2ccc(C(F)(F)F)cc2)n1 [Compound 187, 2-(5-(2-fluoro-6-((4-(trifluoromethyl)phenyl)amino)phenyl)-2H-tetrazol-2-yl)ethan-1-ol]",< 0.1
4,"OCCn1nnc(-c2cc(C(F)(F)F)ccc2Nc2ccc(C(F)(F)F)cc2)n1 [Compound 262, 2-(5-(5-(trifluoromethyl)-2-((4-(trifluoromethyl)phenyl)amino)phenyl)-2H-tetrazol-2-yl)ethanol]",0.1 to 1
5,"NC(=O)Cn1nnc(-c2ccccc2Nc2ccc(C(F)(F)F)cc2)n1 [Compound 102, 2-[5-[2-[4-(trifluoromethyl)anilino]phenyl]tetrazol-2-yl]acetamide]",< 0.1
6,"CCOC(=O)Cn1cc(-c2ccccc2Nc2cccc(C(F)(F)F)c2)nn1 [Compound 18, Ethyl 2-[4-[2-[3-(trifluoromethyl)anilino]phenyl]triazol-1-yl]acetate]",1 to 5

# Same assay, conditions: 24 hrs compound treatment, starting from 3 uM, 1:3 dilution, 10 points; read-out: Firefly Luciferase IC50
row,IC50 [µM],SMILES
1,< 0.1,"CNC(=O)Cn1nnc(-c2ccccc2Nc2ccc(C(F)(F)F)cc2)n1 [Compound 42, N-methyl-2-[5-[2-[4-(trifluoromethyl)anilino]phenyl]tetrazol-2-yl]acetamide]"
2,1 to 5,"CN(C)CCCn1nnc(-c2ccccc2Nc2ccc(OC(F)(F)F)cc2)n1 [Compound 63, 2-(2-(3-(dimethylamino)propyl)-2H-tetrazol-5-yl)-N-(4-(trifluoromethoxy)phenyl) Aniline]"
3,1 to 5,"OC(Cn1nnc(-c2ccccc2Nc2ccc(C(F)(F)F)cc2)n1)c1ccccc1 (stereo not shown) [Compound 143, 1-phenyl-2-[5-[2-[4-(trifluoromethyl)anilino]phenyl]tetrazol-2-yl]ethanol]"
4,< 0.1,"OCCCn1nnc(-c2ccccc2Nc2ccc(C(F)(F)F)cc2)n1 [Compound 98, 3-(5-(2-((4-(trifluoromethyl)phenyl)amino)phenyl)-2H-tetrazol-2-yl)propan-1-01]"
5,0.1 to 1,"FC(F)(F)c1ccc(Nc2ccccc2-c2nnn(CC3COC3)n2)cc1 [Compound 166, 2-(2-(oxetan-3-ylmethyl)-2H-tetrazol-5-yl)-N-(4-(trifluoromethyl)phenyl) Aniline]"
6,0.1 to 1,"OC1(Cn2nnc(-c3ccccc3Nc3ccc(C(F)(F)F)cc3)n2)CCCNC1 (stereo not shown) [Compound 156, 3-((5-(2-((4-(trifluoromethyl)phenyl)amino)phenyl)-2H-tetrazol-2-yl)methyl) piperidin-3-ol]"
7,0.1 to 1,"O[C@H]1CNC[C@@H]1n1nnc(-c2ccccc2Nc2ccc(C(F)(F)F)cc2)n1 [Compound 234, (3S,4S)-4-(5-(2-((4-(trifluoromethyl)phenyl)amino)phenyl)-2H-tetrazol-2-yl)pyrrolidin-3-ol]"
8,1 to 5,OC1(Cn2nnc(-c3ccccc3Nc3ccc(C(F)(F)F)cc3)n2)CCN(c2ccccc2)C1 (stereo not shown) [Compound 172]
9,0.1 to 1,"OCCn1nnc(-c2cc(C(F)F)ccc2Nc2ccc(C(F)(F)F)cc2)n1 [Compound 266, 2-[5-[5-(difluoromethyl)-2-[4-(trifluoromethyl)anilino]phenyl]tetrazol-2-yl]ethanol]"
10,0.1 to 1,"FCCn1nnc(-c2ccccc2Nc2ccc(C(F)(F)F)cc2)n1 [Compound 117, 2-[2-(2-fluoroethyl)tetrazol-5-yl]-N-[4-(trifluoromethyl)phenyl]aniline]"
11,0.1 to 1,"CCOC(=O)Cn1cc(-c2ccccc2Nc2cccc(C(F)(F)F)c2)cn1 [Compound 58, ethyl 2-(4-(2-((3-(trifluoromethyl)phenyl)amino)phenyl)-1H-pyrazol-1-yl)acetate]"
12,1 to 5,"CNCCCn1nnc(-c2ccccc2Nc2ccc(C(F)(F)F)cc2)n1 [Compound 220, 2-(2-(3-(methylamino)propyl)-2H-tetrazol-5-yl)-N-(4-(trifluoromethyl)phenyl) Aniline]"
13,< 0.1,"CO[C@@H](C)[C@@H](C)n1nnc(-c2ccccc2Nc2ccc(C(F)(F)F)cc2)n1 [Compound 212, 2-(2-((2R,3S)-3-methoxybutan-2-yl)-2H-tetrazol-5-yl)-N-(4-(trifluoromethyl)phenyl)aniline]"
14,< 0.1,"OCCn1nnc(-c2ccc(F)cc2Nc2ccc(C(F)(F)F)cc2)n1 [Compound 181, 2-[5-[4-fluoro-2-[4-(trifluoromethyl)anilino]phenyl]tetrazol-2-yl]ethanol]"
15,0.1 to 1,"[N-]=[N+]=Nc1ccc(Nc2ccccc2-c2nnn(CCO)n2)cc1 [Compound 179, 2-[5-[2-(4-azidoanilino)phenyl]tetrazol-2-yl]ethanol]"
16,0.1 to 1,"FC(F)(F)c1ccc(Nc2ccccc2-c2nnn(-c3ccccn3)n2)cc1 [Compound 140, 2-[2-(2-pyridyl)tetrazol-5-yl]-N-[4-(trifluoromethyl)phenyl]aniline]"
17,< 0.1,"OCCn1nnc(-c2ccccc2Nc2ccc(C(F)(F)F)c(Cl)c2)n1 [Compound 246, 2-(5-(2-((3-chloro-4-(trifluoromethyl)phenyl)amino)phenyl)-2H-tetrazol-2-yl)ethanol]"
18,1 to 5,"CS(=O)(=O)NCCCn1nnc(-c2ccccc2Nc2ccc(C(F)(F)F)cc2)n1 [Compound 109, N-(3-(5-(2-((4-(trifluoromethyl)phenyl)amino)phenyl)-2H-tetrazol-2-yl)propyl)methanesulfonamide]"
19,1 to 5,"OCCn1nnc(-c2ccccc2Nc2cccc(C(F)(F)F)c2)n1 [Compound 3, 2-[5-[2-[3-(trifluoromethyl)anilino]phenyl]tetrazol-2-yl]ethanol]"
20,< 0.1,"OCCn1nnc(-c2cc(Br)ccc2Nc2ccc(C(F)(F)F)cc2)n1 [Compound 254, 2-[5-[5-bromo-2-[4-(trifluoromethyl)anilino]phenyl]tetrazol-2-yl]ethanol]"
21,< 0.1,"OCCn1cc(-c2ccccc2Nc2ccc(C(F)(F)F)cc2)nn1 [Compound 191, 2-(4-(2-((4-(trifluoromethyl)phenyl)amino)phenyl)-1H-1,2,3-triazol-1-yl)ethan-1-ol]"
22,1 to 5,"O=C(Cn1nnc(-c2ccccc2Nc2ccc(C(F)(F)F)cc2)n1)c1ccccc1 [Compound 130, 1-phenyl-2-[5-[2-[4-(trifluoromethyl)anilino]phenyl]tetrazol-2-yl]ethanone]"
23,< 0.1,"OCC(O)Cn1nnc(-c2ccccc2Nc2ccc(C(F)(F)F)cc2)n1 (stereo not shown) [Compound 114, 3-(5-(2-((4-(trifluoromethyl)phenyl)amino)phenyl)-2H-tetrazol-2-yl)propane-1,2-diol]"
24,0.1 to 1,"CC(N)Cn1nnc(-c2ccccc2Nc2ccc(C(F)(F)F)cc2)n1 (stereo not shown) [Compound 229, 2-(2-(2-aminopropyl)-2H-tetrazol-5-yl)-N-(4-(trifluoromethyl)phenyl)aniline]"
25,< 0.1,"FC(F)(F)c1ccc(Nc2ccccc2-c2nnn(C3COCOC3)n2)cc1 [Compound 263, 2-(2-(1,3-dioxan-5-yl)-2H-tetrazol-5-yl)-N-(4-(trifluoromethyl)phenyl)aniline]"
